target: IRAK4 (Homo sapiens (Human), UniProt Q9NWZ3); test: In vitro IRAK4 phosphorylation activity assay; assay type: biochemical; details: [γ-33P]-ATP, myelin basic protein substrate, 40 minutes at room temperature; categories
In short: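 Radiometric filter-binding assay, no compound–kinase preincubation; 8 mM MOPS pH 7.0, 0.2 mM EDTA, 10 mM Mg acetate, 0.33 mg/mL myelin basic protein substrate, [γ-33P]-ATP. Reaction 40 min at room temperature, stopped with phosphoric acid, scintillation counting; IC50 reported in categories.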

IRAK4, sequence (Q9NWZ3 whole entry): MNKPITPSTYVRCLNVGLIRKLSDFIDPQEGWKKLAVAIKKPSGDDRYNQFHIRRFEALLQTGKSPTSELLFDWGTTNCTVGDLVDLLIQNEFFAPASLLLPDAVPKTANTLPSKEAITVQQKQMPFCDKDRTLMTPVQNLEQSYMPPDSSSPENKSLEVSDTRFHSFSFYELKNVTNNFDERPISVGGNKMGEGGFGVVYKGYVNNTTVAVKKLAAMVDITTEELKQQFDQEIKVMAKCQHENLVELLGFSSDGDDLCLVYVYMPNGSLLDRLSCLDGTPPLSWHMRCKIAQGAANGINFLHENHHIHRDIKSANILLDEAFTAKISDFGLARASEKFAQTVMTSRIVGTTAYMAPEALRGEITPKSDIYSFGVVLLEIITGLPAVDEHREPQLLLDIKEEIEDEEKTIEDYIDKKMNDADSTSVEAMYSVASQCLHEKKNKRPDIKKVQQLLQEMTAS

`O=C(Nc1nc(CCCCCO)cn1-c1ccccc1)c1cccc(-c2cn[nH]c2)c1` [Example 116, N-(4-(5-hydroxypentyl)-1-phenyl-1H-imidazol-2-yl)-3-(1H-pyrazol-4-yl)benzamide] and `O=C(Nc1nc(CCCCCN2CCOCC2)cn1-c1ccccc1)c1cccc(-c2cn[nH]c2)c1` [Example 119, N-(4-(5-morpholinopentyl)-1-phenyl-1H-imidazol-2-yl)-3-(1H-pyrazol-4-yl)benzamide] cannot be ordered by IC50: < 50 nM for the first, < 50 nM for the second.

Going from `O=C(Nc1nc(CCCCCC(=O)N2CCCCCC2)cn1-c1ccccc1)c1cccc(-c2ccc3[nH]ncc3c2)c1` [Example 241, N-(4-(6-(azepan-1-yl)-6-oxohexyl)-1-phenyl-1H-imidazol-2-yl)-3-(1H-indazol-5-yl)benzamide] to `Cn1ncc2cc(-c3cccc(C(=O)Nc4nc(CCCCCC(=O)N5CCCCC5)cn4-c4ccccc4)c3)ccc21` [Example 251, 3-(1-methyl-1H-indazol-5-yl)-N-(4-(6-oxo-6-(piperidin-1-yl)hexyl)-1-phenyl-1H-imidazol-2-yl)benzamide], the IC50 rises from < 50 nM to > 100 nM. The first is the more potent here.

`Cn1cc(-c2cccc(C(=O)Nc3nc(CCCC(=O)N4CCC(C#N)CC4)cn3-c3ccccc3)c2)cn1` [Example 168, N-(4-(4-(4-cyanopiperidin-1-yl)-4-oxobutyl)-1-phenyl-1H-imidazol-2-yl)-3-(1-methyl-TH-pyrazol-4-yl)benzamide] and `CN(C)C1CCN(C(=O)CCCc2cn(-c3ccccc3)c(NC(=O)c3cccc(-c4cnn(C)c4)c3)n2)CC1` [Example 146, N-(4-(4-(4-(dimethylamino)piperidin-1-yl)-4-oxobutyl)-1-phenyl-1H-imidazol-2-yl)-3-(1-methyl-1H-pyrazol-4-yl)benzamide] cannot be ordered by IC50: < 50 nM for the first, < 50 nM for the second.

Compared with `O=C(Nc1nc(CCCNc2ccccc2)cn1-c1ccccc1)c1cccc(-c2cn[nH]c2)c1` [Example 109, N-(1-phenyl-4-(3-(phenylamino)propyl)-1H-imidazol-2-yl)-3-(1H-pyrazol-4-yl)benzamide], `O=C(Nc1nc(CCCCCCNc2ccccc2)cn1-c1ccccc1)c1cccc(-c2cn[nH]c2)c1` [Example 122, N-(1-phenyl-4-(6-(phenylamino)hexyl)-1H-imidazol-2-yl)-3-(1H-pyrazol-4-yl)benzamide] is higher in IC50: < 50 nM for the first, 50 to 100 nM for the second.

`Cn1cc(-c2cccc(C(=O)Nc3nc(CCCC(=O)NCC4CCOC4)cn3-c3ccccc3)c2)cn1` (stereo not drawn) [Example 180, 3-(1-methyl-1H-pyrazol-4-yl)-N-(4-(4-oxo-4-(((tetrahydrofuran-3-yl)methyl)amino)butyl)-1-phenyl-1H-imidazol-2-yl)benzamide] and `Cn1cc(-c2cccc(C(=O)Nc3nc(CCCC(=O)NCC4CCOCC4)cn3-c3ccccc3)c2)cn1` [Example 172, 3-(1-methyl-1H-pyrazol-4-yl)-N-(4-(4-oxo-4-(((tetrahydro-2H-pyran-4-yl)methyl)amino)butyl)-1-phenyl-1H-imidazol-2-yl)benzamide] cannot be ordered by IC50: < 50 nM for the first, < 50 nM for the second.

`C[C@H]1CCCCN1C(=O)CCCc1cn(-c2ccccc2)c(NC(=O)c2cccc(-c3cn[nH]c3)c2)n1` [Example 62, (S)—N-(4-(4-(2-methylpiperidin-1-yl)-4-oxobutyl)-1-phenyl-1H-imidazol-2-yl)-3-(1H-pyrazol-4-yl)benzamide] and `C[C@@H]1CCCCN1C(=O)CCc1cn(-c2ccccc2)c(NC(=O)c2cccc(-c3cn[nH]c3)c2)n1` [Example 30, (R)—N-(4-(3-(2-methylpiperidin-1-yl)-3-oxopropyl)-1-phenyl-1H-imidazol-2-yl)-3-(1H-pyrazol-4-yl)benzamide] cannot be ordered by IC50: < 50 nM for the first, < 50 nM for the second.

First: COC(=O)Cc1cn(-c2ccccc2)c(NC(=O)c2cccc(-c3cn[nH]c3)c2)n1 [Example 42, methyl 2-(2-(3-(1H-pyrazol-4-yl)benzamido)-1-phenyl-1H-imidazol-4-yl)acetate]
Second: O=C(CCCc1cn(-c2ccccc2)c(NC(=O)c2cccc(-c3cn[nH]c3)c2)n1)NC1CC1 [Example 68, N-(4-(4-(cyclopropylamino)-4-oxobutyl)-1-phenyl-1H-imidazol-2-yl)-3-(1H-pyrazol-4-yl)benzamide]
The IC50 of the first is higher: 50 to 100 nM for the first, < 50 nM for the second. The second is the more potent here.

First: Cn1cc(-c2cccc(C(=O)Nc3nc(CCCC(N)=O)cn3-c3ccccc3)c2)cn1 [Example 189, N-(4-(4-amino-4-oxobutyl)-1-phenyl-1H-imidazol-2-yl)-3-(1-methyl-1H-pyrazol-4-yl)benzamide]
Second: CN(C)CCCNC(=O)CCCc1cn(-c2ccccc2)c(NC(=O)c2cccc(-c3cnn(C)c3)c2)n1 [Example 163, N-(4-(4-((3-(dimethylamino)propyl)amino)-4-oxobutyl)-1-phenyl-1H-imidazol-2-yl)-3-(1-methyl-1H-pyrazol-4-yl)benzamide]
The IC50 of the first is lower: < 50 nM for the first, 50 to 100 nM for the second.

`O=C(Nc1nc(CCCCCC[N+]2([O-])CCCCC2)cn1-c1ccccc1)c1cccc(-c2cn[nH]c2)c1` [Example 125, 1-(6-(2-(3-(1H-pyrazol-4-yl)benzamido)-1-phenyl-1H-imidazol-4-yl)hexyl)piperidine 1-oxide] and `Nc1ccc(-c2cccc(C(=O)Nc3nc(CCCCCCN4CCCCC4)cn3-c3ccccc3)c2)cn1` [Example 275, 3-(6-aminopyridin-3-yl)-N-(1-phenyl-4-(6-(piperidin-1-yl)hexyl)-1H-imidazol-2-yl)benzamide] cannot be ordered by IC50: < 50 nM for the first, < 50 nM for the second.

`O=C(CCCc1cn(-c2ccccc2)c(NC(=O)c2cccc(-c3ccc4ncsc4c3)c2)n1)NC1CC1` [Example 279, 3-(benzo[d]thiazol-6-yl)-N-(4-(4-(cyclopropylamino)-4-oxobutyl)-1-phenyl-1H-imidazol-2-yl)benzamide] and `CN(C)C1CCN(C(=O)CCCCCc2cn(-c3ccccc3)c(NC(=O)c3cccc(-c4ccc5ncsc5c4)c3)n2)CC1` [Example 287, 3-(benzo[d]thiazol-6-yl)-N-(4-(6-(4-(dimethylamino)piperidin-1-yl)-6-oxohexyl)-1-phenyl-1H-imidazol-2-yl)benzamide] cannot be ordered by IC50: < 50 nM for the first, < 50 nM for the second.

Compared with `O=C(Nc1nc(CCCC(=O)N2CCCCC2)cn1-c1ccccc1)c1cccc(-c2cn[nH]c2F)c1` [Example 231, 3-(5-fluoro-1H-pyrazol-4-yl)-N-(4-(4-oxo-4-(piperidin-1-yl)butyl)-1-phenyl-1H-imidazol-2-yl)benzamide], `O=C(Nc1nc(CCCCCC(=O)N2CCCCCC2)cn1-c1ccccc1)c1cccc(-c2ccc3scnc3c2)c1` [Example 289, N-(4-(6-(azepan-1-yl)-6-oxohexyl)-1-phenyl-1H-imidazol-2-yl)-3-(benzo[d]thiazol-5-yl)benzamide] is higher in IC50: < 50 nM for the first, > 100 nM for the second.

First: CN1CCC(NC(=O)CCCc2cn(-c3ccccc3)c(NC(=O)c3cccc(-c4cnn(C)c4)c3)n2)CC1 [Example 148, 3-(1-methyl-1H-pyrazol-4-yl)-N-(4-(4-((1-methylpiperidin-4-yl)amino)-4-oxobutyl)-1-phenyl-1H-imidazol-2-yl)benzamide]
Second: Cn1cc(-c2cccc(C(=O)Nc3nc(CCCC(=O)NCCN4CCOCC4)cn3-c3ccccc3)c2)cn1 [Example 184, 3-(1-methyl-1H-pyrazol-4-yl)-N-(4-(4-((2-morpholinoethyl)amino)-4-oxobutyl)-1-phenyl-1H-imidazol-2-yl)benzamide]
The IC50 of the first is lower: 50 to 100 nM for the first, > 100 nM for the second. The first is the more potent here.

First: Cn1cc(-c2cccc(C(=O)Nc3nc(CCCC(=O)Nc4cc[nH]n4)cn3-c3ccccc3)c2)cn1 [Example 217, N-(4-(4-((1H-pyrazol-3-yl)amino)-4-oxobutyl)-1-phenyl-1H-imidazol-2-yl)-3-(1-methyl-1H-pyrazol-4-yl)benzamide]
Second: CCOC(C)(C)n1cc(-c2cccc(C(=O)Nc3nc(CCCC(=O)NC4CC4)cn3-c3ccccc3)c2)cn1 [Example 73, N-(4-(4-(cyclopropylamino)-4-oxobutyl)-1-phenyl-1H-imidazol-2-yl)-3-(1-(2-ethoxypropan-2-yl)-1H-pyrazol-4-yl)benzamide]
The IC50 of the first is lower: < 50 nM for the first, 50 to 100 nM for the second. The first is the more potent here.

First: Cn1ncc2cc(-c3cccc(C(=O)Nc4nc(CCCCCCN5CCCCC5)cn4-c4ccccc4)c3)ccc21 [Example 263, 3-(1-methyl-1H-indazol-5-yl)-N-(1-phenyl-4-(6-(piperidin-1-yl)hexyl)-1H-imidazol-2-yl)benzamide]
Second: Cn1cc(-c2cccc(C(=O)Nc3nc(CCCCC(=O)N4CCC(N)CC4)cn3-c3ccccc3)c2)cn1 [Example 213, N-(4-(5-(4-aminopiperidin-1-yl)-5-oxopentyl)-1-phenyl-1H-imidazol-2-yl)-3-(1-methyl-1H-pyrazol-4-yl)benzamide]
The IC50 of the first is higher: 50 to 100 nM for the first, < 50 nM for the second. The second is the more potent here.

`COC[C@H]1CCCN1C(=O)CCCc1cn(-c2ccccc2)c(NC(=O)c2cccc(-c3cn[nH]c3)c2)n1` [Example 56, (R)—N-(4-(4-(2-(methoxymethyl)pyrrolidin-1-yl)-4-oxobutyl)-1-phenyl-1H-imidazol-2-yl)-3-(1H-pyrazol-4-yl)benzamide] and `COC[C@@H]1CCCN1C(=O)CCCc1cn(-c2ccccc2)c(NC(=O)c2cccc(-c3cn[nH]c3)c2)n1` [Example 55, (S)—N-(4-(4-(2-(methoxymethyl)pyrrolidin-1-yl)-4-oxobutyl)-1-phenyl-1H-imidazol-2-yl)-3-(1H-pyrazol-4-yl)benzamide] cannot be ordered by IC50: < 50 nM for the first, < 50 nM for the second.

`O=C(Nc1nc(CCC(=O)N2CCCC[C@@H]2C(F)(F)F)cn1-c1ccccc1)c1cccc(-c2cn[nH]c2)c1` [Example 39, (R)—N-(4-(3-oxo-3-(2-(trifluoromethyl)piperidin-1-yl)propyl)-1-phenyl-1H-imidazol-2-yl)-3-(1H-pyrazol-4-yl)benzamide] and `O=C(CCc1cn(-c2ccccc2)c(NC(=O)c2cccc(-c3cn[nH]c3)c2)n1)Nc1ccc(F)cc1` [Example 10, N-(4-(3-((4-fluorophenyl)amino)-3-oxopropyl)-1-phenyl-1H-imidazol-2-yl)-3-(1H-pyrazol-4-yl)benzamide] fall in the same range of IC50: 50 to 100 nM for the first, 50 to 100 nM for the second.

With `CN1CCN(C(=O)CCCc2cn(-c3ccccc3)c(NC(=O)c3cccc(-c4ccc(N)nc4)c3)n2)CC1` [Example 274, 3-(6-aminopyridin-3-yl)-N-(4-(4-(4-methylpiperazin-1-yl)-4-oxobutyl)-1-phenyl-1H-imidazol-2-yl)benzamide] the IC50 was < 50 nM.

— patent publication US12534452B2, “N-(1H-imidazol-2-yl)benzamide compound and pharmaceutical composition comprising the same as active ingredient” (KAINOS MEDICINE, INC., priority 2019, dated 2026)
